# According to publication PMC10734772 (Turkish Journal of Chemistry, 2021):
# Assays:
# Type in all cases: cell-based
# Reh = experiment: MTT assay, Reh cells; details: Homo sapiens, 24 h, read-out: Viability rate
# Molt-4 = experiment: MTT assay, Molt-4 cells; details: Homo sapiens, MOLT-4, 24 h, read-out: Viability rate
# Jurkat = experiment: MTT assay, Jurkat cells; details: Homo sapiens, 24 h, read-out: Viability rate
# [1] = MTT assay, Hek293T non-leukemic control cells; details: human, read-out: Viability rate
# K562 = experiment: MTT assay, K562 cells; details: Homo sapiens, 24 h, MTT, read-out: Viability rate
# Protocol: K562, Jurkat and Molt-4 cell lines were seeded as 4x10^5/ml, Reh and Nalm-6 cell lines were seeded 5x10^5/ml, Hek293T cell line was seed as 2x10^5/ml.
# MTT assay is a 3-day test. On the first day, cell count was performed in Bio Rad TC-20 device with the help of trypan blue, each cell line was prepared by diluting to the specified concentrations and seeded in a 96-well plate as 100μL to each well and incubated for 1 day.
# On the second day, stock solutions were subsequently diluted to various concentrations (0.3–200 μM) with related medium prior to experiments. Specified concentrations of the compounds were seeded in a 96-well plate as 100μL to each well and incubated for 24 h.
# After incubation (on the third day), to precipitate leukemia cells, the cell plate was centrifuged at 1500 rpm for 5 min. […] The 50 μl of supernatant was discarded from each well and 100 μl of DMSO was added to dissolve the formazan. Plates were shaken for 45 min to dissolve the dye. Then the optical density of each well was measured by using Thermo VarioSkan Flush Multimode Reader Quantum ST5-1100 at 570 nm wavelength.
# Subsequently, viability rate of the cells at each concentration, as percentage, was determined by following formula (1):
# Viability rate (%)=100-[(OD(control)-OD(sample))/OD(control)×100].OD=Optical Density
# The IC50 values were calculated by using GraphPad Prism. All the data presented as the mean of 6 replicates. […] Statistical analysis was performed using dose-response inhibition, log(inhibitor) vs response-variable slope, least squares (ordinary) fit.
# Nalm-6 = experiment: MTT assay, Nalm-6 cells; details: Homo sapiens, 24 h, MTT, read-out: Viability rate
# [2] = test system: K562, Nalm-6, Molt-4, Reh, Jurkat, Hek293T cell lines; experiment: MTT assay, overall judgement over all cell lines; details: overall judgement in words; for 6 and 10: on all cell lines, except Reh
# Method in brief: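 MTT viability assay run across a range of compound concentrations in leukemic lines, BCR-ABL positive K562 and BCR-ABL negative Nalm-6, Molt-4, Reh, Jurkat, plus non-leukemic Hek293T. Viability rate calculated per concentration.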
smiles,measurement,setting,value
"Cc1ccnc(Nc2cc(NC(=O)c3ccc(CN4CCOCC4)cc3)ccc2C)n1 [Compound 8, N-(4-Methyl-3-((4-methylpyrimidin-2-yl)amino)phenyl)-4-(morhpolinomethyl)benzamide]",viability at 0.3 µM,Reh; 0.3 μM,100.8 ± 0.03%
same,viability at 0.5 µM,Reh; 0.5 μM,102.4 ± 0.02%
same,viability at 1 µM,Reh; 1 μM,102 ± 0.01%
same,viability at 3 µM,Reh; 3 μM,104.8 ± 0.02%
same,viability at 5 µM,Reh; 5 μM,103.5 ± 0.01%
same,viability at 10 µM,Reh; 10 μM,103.1 ± 0.01%
same,viability at 15 µM,Reh; 15 μM,100.3 ± 0.01%
same,viability at 20 µM,Reh; 20 μM,100.6 ± 0.02%
same,viability at 30 µM,Reh; 30 μM,102.4 ± 0.04%
same,viability at 50 µM,Reh; 50 μM,99.4 ± 0.02%
same,viability at 70 µM,Reh; 70 μM,94.2 ± 0.03%
same,viability at 100 µM,Reh; 100 μM,91.1 ± 0.01%
same,viability at 150 µM,Reh; 150 μM,91.1 ± 0.02%
same,viability at 200 µM,Reh; 200 μM,91.2 ± 0.04%
same,viability at 0.3 µM,"Molt-4; Molt-4, 0.3 μM",98.5 ± 0.09%
same,viability at 0.5 µM,"Molt-4; Molt-4, 0.5 μM",98.5 ± 0.11%
same,viability at 1 µM,"Molt-4; Molt-4, 1 μM",95.4 ± 0.11%
same,viability at 3 µM,"Molt-4; Molt-4, 3 μM",89.2 ± 0.07%
same,viability at 5 µM,"Molt-4; Molt-4, 5 μM",90.7 ± 0.07%
same,viability at 10 µM,"Molt-4; Molt-4, 10 μM",90.4 ± 0.07%
same,viability at 15 µM,"Molt-4; Molt-4, 15 μM",90.8 ± 0.05%
same,viability at 20 µM,"Molt-4; Molt-4, 20 μM",88.3 ± 0.04%
same,viability at 30 µM,"Molt-4; Molt-4, 30 μM",85.8 ± 0.04%
same,viability at 50 µM,"Molt-4; Molt-4, 50 μM",83.6 ± 0.02%
same,viability at 70 µM,"Molt-4; Molt-4, 70 μM",82.6 ± 0.09%
same,viability at 100 µM,"Molt-4; Molt-4, 100 μM",81.5 ± 0.09%
same,viability at 150 µM,"Molt-4; Molt-4, 150 μM",78.9 ± 0.05%
same,viability at 200 µM,"Molt-4; Molt-4, 200 μM",78.8 ± 0.07%
same,viability at 0.3 µM,Jurkat; 0.3 μM,81.7 ± 0.08%
same,viability at 0.5 µM,Jurkat; 0.5 μM,78.7 ± 0.03%
same,viability at 1 µM,Jurkat; 1 μM,75.8 ± 0.04%
same,viability at 3 µM,Jurkat; 3 μM,76.8 ± 0.04%
same,viability at 5 µM,Jurkat; 5 μM,78.8 ± 0.02%
same,viability at 10 µM,Jurkat; 10 μM,78.5 ± 0.05%
same,viability at 15 µM,Jurkat; 15 μM,77.6 ± 0.05%
same,viability at 20 µM,Jurkat; 20 μM,77.6 ± 0.04%
same,viability at 30 µM,Jurkat; 30 μM,66.1 ± 0.07%
same,viability at 50 µM,Jurkat; 50 μM,65.4 ± 0.03%
same,viability at 70 µM,Jurkat; 70 μM,65.3 ± 0.04%
same,viability at 100 µM,Jurkat; 100 μM,63 ± 0.02%
same,viability at 150 µM,Jurkat; 150 μM,62.4 ± 0.08%
same,viability at 200 µM,Jurkat; 200 μM,62.3 ± 0.05%
same,"viability at 24 h, 0.3 µM","[1]; Hek293T cells (non-leukemic control cell line), 0.3 μM",95.7 ± 0.03%
same,"viability at 24 h, 0.5 µM","[1]; Hek293T cells (non-leukemic control cell line), 0.5 μM",94.8 ± 0.07%
same,"viability at 24 h, 3 µM","[1]; Hek293T cells (non-leukemic control cell line), 3 μM",92.9 ± 0.04%
same,"viability at 24 h, 5 µM","[1]; Hek293T cells (non-leukemic control cell line), 5 μM",91.2 ± 0.09%
same,"viability at 24 h, 10 µM","[1]; Hek293T cells (non-leukemic control cell line), 10 μM",90.8 ± 0.05%
same,"viability at 24 h, 15 µM","[1]; Hek293T cells (non-leukemic control cell line), 15 μM",90.1 ± 0.07%
same,"viability at 24 h, 20 µM","[1]; Hek293T cells (non-leukemic control cell line), 20 μM",90 ± 0.04%
same,"viability at 24 h, 30 µM","[1]; Hek293T cells (non-leukemic control cell line), 30 μM",84.9 ± 0.04%
same,"viability at 24 h, 50 µM","[1]; Hek293T cells (non-leukemic control cell line), 50 μM",81.3 ± 0.02%
same,"viability at 24 h, 70 µM","[1]; Hek293T cells (non-leukemic control cell line), 70 μM",66.9 ± 0.02%
same,"viability at 24 h, 100 µM","[1]; Hek293T cells (non-leukemic control cell line), 100 μM",66.4 ± 0.03%
same,"viability at 24 h, 150 µM","[1]; Hek293T cells (non-leukemic control cell line), 150 μM",59.4 ± 0.01%
same,"viability at 24 h, 200 µM","[1]; Hek293T cells (non-leukemic control cell line), 200 μM",58.2 ± 0.01%
same,"viability at 24 h, 1 µM","[1]; Hek293T cells, 1 μM",94.3 ± 0.06%
same,viability at 0.3 µM,"K562; K562, 0.3 μM",86.2 ± 0.09%
same,viability at 0.5 µM,"K562; K562, 0.5 μM",85.3 ± 0.03%
same,viability at 1 µM,"K562; K562, 1 μM",84.7 ± 0.05%
same,viability at 3 µM,"K562; K562, 3 μM",84.7 ± 0.06%
same,viability at 5 µM,"K562; K562, 5 μM",76.8 ± 0.11%
same,viability at 10 µM,"K562; K562, 10 μM",76.7 ± 0.05%
same,viability at 15 µM,"K562; K562, 15 μM",76.7 ± 0.08%
same,viability at 20 µM,"K562; K562, 20 μM",76.6 ± 0.04%
same,viability at 30 µM,"K562; K562, 30 μM",75.6 ± 0.09%
same,viability at 50 µM,"K562; K562, 50 μM",72.5 ± 0.07%
same,viability at 70 µM,"K562; K562, 70 μM",72.6 ± 0.08%
same,viability at 100 µM,"K562; K562, 100 μM",66.4 ± 0.02%
same,viability at 150 µM,"K562; K562, 150 μM",65.3 ± 0.06%
same,viability at 200 µM,"K562; K562, 200 μM",65.2 ± 0.06%
same,viability at 0.3 µM,"Nalm-6; Nalm-6, 0.3 μM",102.8 ± 0.04%
same,viability at 0.5 µM,"Nalm-6; Nalm-6, 0.5 μM",101.8 ± 0.04%
same,viability at 1 µM,"Nalm-6; Nalm-6, 1 μM",102.7 ± 0.02%
same,viability at 3 µM,"Nalm-6; Nalm-6, 3 μM",99.6 ± 0.04%
same,viability at 5 µM,"Nalm-6; Nalm-6, 5 μM",102.5 ± 0.02%
same,viability at 10 µM,"Nalm-6; Nalm-6, 10 μM",100.6 ± 0.03%
same,viability at 15 µM,"Nalm-6; Nalm-6, 15 μM",100 ± 0.03%
same,viability at 20 µM,"Nalm-6; Nalm-6, 20 μM",94.2 ± 0.07%
same,viability at 30 µM,"Nalm-6; Nalm-6, 30 μM",95.9 ± 0.07%
same,viability at 50 µM,"Nalm-6; Nalm-6, 50 μM",91.9 ± 0.06%
same,viability at 70 µM,"Nalm-6; Nalm-6, 70 μM",87.7 ± 0.02%
same,viability at 100 µM,"Nalm-6; Nalm-6, 100 μM",87.4 ± 0.02%
same,viability at 150 µM,"Nalm-6; Nalm-6, 150 μM",81.3 ± 0.02%
same,viability at 200 µM,"Nalm-6; Nalm-6, 200 μM",70.8 ± 0.01%
same,anticancer activity according to MTT assay results,[2],relatively lower activity
